Results: patent US9686982B2, “Treatment of potatoes and root vegetables during storage” (AMVAC CHEMICAL CORPORATION, priority 2013, dated 2017)

How the values were obtained:
[1] = system: tubers (cv Alturas); test: Tuber firmness measured with TA-XT-2 texture analyzer; type: in vivo, potato; conditions: 115 ppm; for Tuber firmness (N) Average / Tuber firmness (N) Rep 1 / Tuber firmness (N) Rep 2 / Tuber firmness (N) Rep 3 / Tuber firmness (N) Rep 4: stored at 8° C.; for Tuber firmness (N) Rep 1 / Tuber firmness (N) Rep 2 / Tuber firmness (N) Rep 3 / Tuber firmness (N) Rep 4: mean of 6 tubers
Protocol: The source of tubers for this study was Telford Farms in Paul, Id. The storage unit temperature set point was 48.5° F. (9° C.). The tuber pulp temperatures ranged from 49 to 53.6° F. (9 to 12° C.) depending upon their location in the pile. Untreated tubers (cv Alturas) were selected from storage on Jul. 2, 2013 (prior to SmartBlock® application) to serve as untreated controls. About 200 lbs (91 kg) of these were distributed into 4 coolers with cold packs and transported to the Fed Ex office in Twin Falls, Id. at 1:45 pm where they remained in the air conditioned office until 6:23 pm when they left the facility. Untreated tubers to arrived in Pullman at 11:45 am on July 3.
SmartBlock® was applied at a rate of 4.2 fluid oz ton^−1 (136 mL MT^−1) to tubers remaining in the Telford Farms storage on July 2. Ventilation was suspended for an estimated 12 to 18 hrs. post treatment. A shipment of the treated tubers was packed as described above and delivered to Fed Ex in Twin Falls for shipment on July 3. The shipment arrived in Pullman on July 5 at 11:30 am.
Tubers were sorted into weight categories immediately upon arrival in Pullman, working at room temperature (˜25° C.) and in dim light (0.16-1.34 μE sec^−1 m^−2). Two experimental groups were created from the untreated (control) tubers; those with one or more sprouts ≧0.5 cm and those with no significant (>2 mm) sprouts. Sorting of tubers and their assignment to treatment groups for the various experiments was accomplished within 1.5 hr. and subsequently all tubers were placed in dark, walk-in storage at 8° C. with 85 to 90% RH. Humidity was maintained through the use of a household room humidifier, water on the concrete floor, and damp burlap placed on the empty shelves.
Tubers for firmness measurements were sorted by treatment and blocked for size. Each treatment group (containing at least 24 tubers) was stored in a plastic tote in the walk-in cold room at 8° C. Damp burlap was placed atop the tote so as not to contact the tubers directly. Burlap was re-wetted every two days. At 6, 13, 20, and 27 days after treatment (DAT), six tubers from each rep of each treatment (3-decen-2-one-treated and non-treated not sprouted) were selected and gently rinsed under cold running water to remove surface soil. The tubers were placed in plastic tubs and covered with damp paper towels for transport to the testing facility.
A TA-XT-2 texture analyzer (Stable Microsystems) was used to test tubers for firmness. A section of peel was removed from the midsection on opposite sides of the tuber. An 8-mm probe was lowered into the tuber tissue within this peeled area to a distance of 5 mm at a speed of 1 mm s^−1. Firmness was recorded as the N (m kg s−1) required to achieve the specified penetration. The two readings per tuber were averaged. Analysis of variance was performed on the data set.

[2] = system: dry rot (Fusarium sambucinum); test: Disease defects in commercial storage in Canada (Storage Bin 3); type: in vivo
Protocol: (§1) One group of sprouted, diseased tubers (Storage Bin 3) were treated with 3-decen-2-one (as SmartBlock®) at the rate of 115 ppm using a hot fogging method. Another group of tubers was left untreated as a control.

[3] = system: Potato variety FL 2053; test: Sprout control in commercial storage in Canada (Storage Bin 3); type: in vivo; conditions: 115 ppm hot fogging, sprouted diseased tubers, FIG. 4
Protocol: as §1

[4] = Dec. 10, 2013, final grading after 115 ppm thermal fog

CCCCCCC=CC(C)=O [3-decen-2-one]
% Increase (tuber firmness vs untreated) ([1]; 6 days after treatment): 4.09%
Tuber firmness (N) Average ([1]; 6 days after treatment): 75.38 N
Tuber firmness (N) Rep 1 ([1]; 6 days after treatment): 67.84 N
Tuber firmness (N) Rep 2 ([1]; 6 days after treatment): 79.18 N
Tuber firmness (N) Rep 3 ([1]; 6 days after treatment): 75.64 N
Tuber firmness (N) Rep 4 ([1]; 6 days after treatment): 78.85 N
% Increase (tuber firmness vs untreated) ([1]; 13 days after treatment): 2.80%
Tuber firmness (N) Average ([1]; 13 days after treatment): 73.45 N
Tuber firmness (N) Rep 1 ([1]; 13 days after treatment): 73.22 N
Tuber firmness (N) Rep 2 ([1]; 13 days after treatment): 67.34 N
Tuber firmness (N) Rep 3 ([1]; 13 days after treatment): 73.98 N
Tuber firmness (N) Rep 4 ([1]; 13 days after treatment): 79.26 N
% Increase (tuber firmness vs untreated) ([1]; 20 days after treatment): 3.28%
Tuber firmness (N) Average ([1]; 20 days after treatment): 74.90 N
Tuber firmness (N) Rep 1 ([1]; 20 days after treatment): 74.51 N
Tuber firmness (N) Rep 2 ([1]; 20 days after treatment): 74.63 N
Tuber firmness (N) Rep 3 ([1]; 20 days after treatment): 72.81 N
Tuber firmness (N) Rep 4 ([1]; 20 days after treatment): 77.64 N
symptoms of dry rot compared to untreated controls ([2]; 115 ppm hot fogging, sprouted diseased tubers, FIG. 4): decreased or eliminated symptoms of dry rot
% Total Defects ([2]; Dec. 10, 2013, bin unloaded after 115 ppm thermal fog on Nov. 13, 2013 (14.30 before treatment), variety FL 2053): 4.23%
moistness of tubers [2, 4]: tubers were not moist and mold
mold development [2, 4]: development had been arrested.
Change (of % total defects) ([2]; Dec. 10, 2013 versus Nov. 13, 2013 before treatment, 115 ppm thermal fog): -70.4
sprouting compared to untreated controls [3]: reduced/prevented sprouting
